Reference: patent publication US20120121692A1, “COMPOUNDS AND COMPOSITIONS COMPRISING CDK INHIBITORS AND METHODS FOR TREATING CANCER” (SHANDONG UNIVERSITY, priority 2009, published 2012)
pIC50: −log10 of the molar value. Like-named read-outs stand apart in the source and are kept apart here.

Experiments:
HCT116 cells = assay: MTT cytotoxicity screening, human colon cancer cell line HCT116; assay type: cell-based
Text: Human colon cancer cell line HCT116 can be used for the preliminary cytotoxicity screening of the disclosed compounds as disclosed by Mosmann, T., “Rapid colorimetric assay for cellular growth and survival: application to proliferation and cytotoxicity assays.” J. Immunol. Methods, (1983) 65(1-2): p. 55-63 referred to herein further as the “MTT test” which is incorporated herein by reference in its entirety.
The disclosure of Mosmann recites the following. “MTT 93-(4,5-dimethylthirazol-2-yl)-2,5-diphenyl tetrazolium bromide; Sigman catalog no. M2128) was dissolved in PBS at 5 mg/ml and filtered to sterilize and remove a small amount of insoluble residue present in some batches of MTT. At the times indicated below, stock MTT solution (10 ml per 100 ml) was added to all wells of an assay, and plates were incubated at 37° C. for 4 h. Acid-siopropanol (100 ml of 0.04 N HCl in isopropanol) was added to all wells and mixed thoroughly to dissolve the dark blue crystals. After a few minutes at room temperature to ensure that all crystals were dissolved, the plates were read o a Dynatech MR580Microelisa reader, using a test wavelength of 570 nm, a reference wavelength of 630 nm, and a calibration setting of 1.99 (or 1.0 if the samples were strongly colored). Plates were normally read within 1 h of adding the isopropanol.
“Our final procedure was to add 0.01 ml MTT (5 mg/ml in phosphate-buffered saline) to 0.1 ml cells in growth medium. After 4 h at 37° C. for MTT cleavage, the formazan product was solublilized by the addition of 0.1 ml 0.04 N HCl in isopropanol. Optical density was measured on a Dynatech MR 580 plate reader, using a reference wavelength of 630 nm and a test wavelength of 570 nm.” 3-(4,5-Dimethylthiazol-2-yl)-2,5-diphenyltetrazolium bromide, a tetrazole, can pass through cellular membrane to enter into cells. This tetrazole may be reduced to the purple formazan in the mitochondria of living cells, which can diffuse out to form crystals. This crystal can be dissolved in the dimethyl sulfoxide to form a colored solution. The absorbance of this colored solution can be quantified by measuring at certain wavelength (490 nm) using a spectrophotometer. The quantity of the formazan crystal is proportional to the number of living cells.
As used herein, cells were cultured in McCoy's 5A medium supplemented with 10% heat-inactivated Fetal Bovine Serum (FBS) and 5% Penicillin/Streptomycin solution. McCoy's 5A, 1× (Iwakata & Grace modified) medium with L-Glutamine, DPBS, 1× w/o Ca and Mg, Penicillin/Streptomycin solution, Trypsin EDTA, 1× and PBS, 1× w/o Ca and Mg were purchased from Mediatech, Inc. (USA). FBS was purchased from Hyclone (USA).
The cytotoxicity of the compounds was estimated using the MTT assay. A 96-well plate was seeded with 100 μl medium containing HCT116 cells in suspension at a density of 2.5×10^4 cells/ml. After 24 hours of incubation, the cells were treated with the compounds, which were dissolved in DMSO (dimethyl sulfoxide) as stock solutions and diluted to final concentrations of 100 μM, 50 μM, 25 μM, 12.5 μM, 6.25 μM & 1 μM (for compounds tested in the micromolar concentrations) and 10 μM, 1 μM, 500 nM, 250 nM, 125 nM & 62.5 nM (for compounds tested in the nanomolar concentration range) using medium containing 0.1% DMSO. The final concentration of DMSO in the culture medium was maintained at 0.1%-0.001% (v/v). After 48 hrs incubation in the presence of test compounds, the spent medium was removed and the wells were washed twice with 100 μL of PBS solution. 100 μL of fresh medium and 10 μL of MTT (5 mg/ml in PBS) was added to the wells and incubated at 37° C. in dark for 4 hrs. The formazan product was dissolved by adding 100 μL of 100% DMSO after removing the medium from each well and was stabilized by adding 12.5 μL of Sorensen's glycine buffer to each well. […]

[1] = Homo sapiens, HCT-116, 48 hrs incubation, absorbance 490 nm, primary screening, read-out: IC50

| Molecule | pIC50 (HCT116 cells; [1]) | melting point [°C] | pIC50 (HCT116 cells; 48 hrs incubation, absorbance 490 nm, primary screening, read-out: IC50) | pIC50 (HCT116 cells; Homo sapiens, HCT-116, further evaluated after secondary screening (Table VIII), read-out: IC50 value) |
| --- | --- | --- | --- | --- |
| COc1cc(OC)c(C2=CCNCC2)c(O)c1C(=O)/C=C/c1ccc(O)cc1 [Compound B11, (E)-1-(2-hydroxy-4,6-dimethoxy-3-(1,2,3,6-tetrahydropyridine-4-yl)phenyl)-3-(4-hydroxyphenyl)-2-propylene-1-one] | 5.39 | 109 to 110 |  |  |
| COc1cc(OC)c(C2=CCN(C)CC2)c(O)c1C(=O)/C=C/c1ccc(Cl)cc1 [Compound A12, (E)-3-(4-chlorophenyl)-1-(2-hydroxy-4,6-dimethoxy-3-(1-methyl-1,2,3,6-tetrahydropyridine-4-yl)phenyl)-2-propylene-1-one] | 5.08 | 169 to 170 |  |  |
| COc1cc(OC)c(C2=CCN(C)CC2)c(O)c1C(=O)/C=C/c1ccccc1Cl [Compound A2, (E)-3-(2-chlorophenyl)-1-(2-hydroxy-4,6-dimethoxy-3-(1-methyl-1,2,3,6-tetrahydropyridine-4-yl)phenyl)-2-propylene-1-one] | 4.55 | 184 to 185 |  |  |
| COc1cc(OC)c(C2=CCN(C)CC2)c(O)c1C(=O)/C=C/c1ccc(O)cc1 [Compound A11, (E)-1-(2-hydroxy-4,6-dimethoxy-3-(1-methyl-1,2,3,6-tetrahydropyridine-4-yl)phenyl)-3-(4-hydroxyphenyl)-2-propylene-1-one] | 4.05 | 98 to 100 |  |  |
| COc1cc(OC)c(C2=CCNCC2)c(O)c1C(=O)/C=C/c1cccc([N+](=O)[O-])c1 [Compound B8, (E)-1-(2-hydroxy-4,6-dimethoxy-3-(1,2,3,6-tetrahydropyridine-4-yl)phenyl)-3-(3-nitrophenyl)-2-propylene-1-one] | 5.39 | 199 to 200 |  |  |
| COc1cc(OC)c(C(=O)/C=C/c2ccc(Br)cc2)c(O)c1CN1CCCCC1 [Compound C6] |  | 99 to 100 |  |  |
| COc1cc(OC)c(C2=CCNCC2)c(O)c1C(=O)/C=C/c1ccccc1[N+](=O)[O-] [Compound B3, (E)-1-(2-hydroxy-4,6-dimethoxy-3-(1,2,3,6-tetrahydropyridine-4-yl)phenyl)-3-(2-nitrophenyl)-2-propylene-1-one] | 5.25 | 128 to 130 |  |  |
| COc1cc(OC)c(C2=CCNCC2)c(O)c1C(=O)/C=C/c1ccc(C)cc1 [Compound B9, (E)-1-(2-hydroxy-4,6-dimethoxy-3-(1,2,3,6-tetrahydropyridine-4-yl)phenyl)-3-(4-methylphenyl)-2-propylene-1-one] | 5.40 | 98 to 100 |  |  |
| COc1cc(OC)c(C2=CCN(C)CC2)c(O)c1C(=O)/C=C/c1ccccc1[N+](=O)[O-] [Compound A3, (E)-1-(2-hydroxy-4,6-dimethoxy-3-(1-methyl-1,2,3,6-tetrahydropyridine-4-yl)phenyl)-3-(2-nitrophenyl)-2-propylene-1-one] | 4.75 | 149 to 151 |  |  |
| COc1cc(OC)c(C2=CCNCC2)c(O)c1C(=O)/C=C/c1ccc(C#N)cc1 [Compound B15, (E)-3-(4-cyanophenyl)-1-(2-hydroxy-4,6-dimethoxy-3-(1,2,3,6-tetrahydropyridine-4-yl)phenyl)-2-propylene-1-one] | 5.14 | 135 to 136 |  |  |
| COc1ccc(/C=C/C(=O)c2c(OC)cc(OC)c(C3=CCN(C)CC3)c2O)cc1 [Compound A10, (E)-1-(2-hydroxy-4,6-dimethoxy-3-(1-methyl-1,2,3,6-tetrahydropyridine-4-yl)phenyl)-3-(4-methoxyphenyl)-2-propylene-1-one] | 4.93 | 177 to 178 |  |  |
| COc1ccc(/C=C/C(=O)c2c(OC)cc(OC)c(C3=CCNCC3)c2O)cc1 [Compound B10, (E)-1-(2-hydroxy-4,6-dimethoxy-3-(1,2,3,6-tetrahydropyridine-4-yl)phenyl)-3-(4-methoxyphenyl)-2-propylene-1-one] | 4.94 | 90 to 91 |  |  |
| COc1ccc(-c2cc(=O)c3c(OC)cc(OC)c(C4=CCN(C)CC4)c3o2)c(OC)c1OC [Compound F7, 5,7-dimethoxy-8-(1-methyl-1,2,3,6-tetrahydropyridin-4-yl)-2-(2,3,4-trimethoxy-phenyl)-4H-chromen-4-one] | 5.04 | 209 to 210 |  |  |
| COc1cc(/C=C/C(=O)c2c(OC)cc(OC)c(C3=CCNCC3)c2O)cc(OC)c1OC [Compound B17, (E)-1-(2-hydroxy-4,6-dimethoxy-3-(1,2,3,6-tetrahydropyridine-4-yl)phenyl)-3-(3,4,5-trimethoxyphenyl)-2-propylene-1-one] | 5.38 | 124 to 125 |  |  |
| COc1cc(OC)c(C2=CCN(C)CC2)c(O)c1C(=O)/C=C/c1cccc([N+](=O)[O-])c1 [Compound A8, (E)-1-(2-hydroxy-4,6-dimethoxy-3-(1-methyl-1,2,3,6-tetrahydropyridine-4-yl)phenyl)-3-(3-nitrophenyl)-2-propylene-1-one] | 4.98 | 128 to 130 |  |  |
| COc1cc(OC)c(C(=O)/C=C/c2cc(OC)c(OC)c(OC)c2)c(O)c1CN1CCOCC1 [Compound D8, (E)-3-(3,4,5-trimethoxyphenyl)-1-(2-hydroxy-4,6-dimethoxy-3-(morpholinemethyl)-phenyl)-2-propylene-1-one] |  | 169 to 170 |  |  |
| COc1cccc(/C=C/C(=O)c2c(OC)cc(OC)c(CN3CCCCC3)c2O)c1 [Compound C3, (E)-1-(2-hydroxy-4,6-dimethoxy-3-(piperidin-1-ylmethyl)phenyl)-3-(3-methoxyphenyl)-2-propylene-1-one] | 5.55 |  |  |  |
| COc1cc(OC)c(C(=O)/C=C/c2cccc(C)c2)c(O)c1CN1CCOCC1 [Compound D7, (E)-3-(3-methylphenyl)-1-(2-hydroxy-4,6-dimethoxy-3-(morpholinemethyl)-phenyl)-2-propylene-1-one] |  | 158 to 159 |  |  |
| COc1cc(OC)c2c(=O)cc(-c3ccccc3)oc2c1C1=CCN(C)CC1 [Compound F1, 5,7-Dimethoxy-8-(1-methyl-1,2,3,6-tetrahydropyridin-4-yl)-2-phenyl-4H-chromen-4-one] | 4.68 |  |  |  |
| CN1CC=C(c2c(O)cc(O)c3c(=O)cc(-c4ccccc4)oc23)CC1 [Compound G1, 5,7-hydroxy-8-(1-methyl-1,2,3,6-tetrahydropyridin-4-yl)-2-phenyl-4H-chromen-4-one] | 5.42 |  |  |  |
| 5,7-dimethoxy-8-(1-methyl-1,2,3,6-tetrahydropyridin-4-yl)-2-(3-methylphenyl)-4H-chromen-4-one [Compound F2] |  |  | 4.69 |  |
| COc1cc(OC)c(C(=O)/C=C/c2ccc(C)cc2)c(O)c1CN1CCCCC1 [Compound C1, (E)-1-(2-hydroxy-4,6-dimethoxy-3-(piperidin-1-ylmethyl)phenyl)-3-(4-methylphenyl)-2-propylene-1-one] | 5.25 |  |  |  |
| COc1cc(OC)c(C2=CCN(C)CC2)c(O)c1C(=O)/C=C/c1ccccc1 [Compound A1, (E)-1-(2-Hydroxy-4,6-dimethoxy-3-(1-methyl-1,2,3,6-tetrahydropyridine-4-yl)phenyl)-3-phenylprop-2-en-1-one] | 5.00 |  |  |  |
| CN1CC[C@H](c2c(O)cc(O)c3c(=O)cc(-c4ccccc4Cl)oc23)[C@H](O)C1 [flavopiridol, reference compound] |  |  |  | ~6.89 |
| COc1cc(OC)c(C(=O)/C=C/c2cccc(C)c2)c(O)c1CN1CCCCC1 [Compound C5] |  | 113 to 114 |  |  |
